From the supplement of paper PMC10307832

Key:
Assay in all cases: relative viability (nuclei count vs DMSO), 5 days (fraction); higher = more cells survive
Ibrutinib + Phenformin = compound: C=CC(=O)N1CCC[C@@H](n2nc(-c3ccc(Oc4ccccc4)cc3)c3c(N)ncnc32)C1 [Ibrutinib] + N=C(N)NC(=N)NCCc1ccccc1 [Phenformin] (partner 250 µM)
In short: (§1)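 Lung cancer cell lines were seeded in 1536-well plates and dosed by pin tool the next day, with either a single drug or a fixed anchor-drug dose combined with five library-drug doses (not always all listed) spaced in √10 steps. Five days later, one step fixed the cells and stained their nuclei (final 0.05% Triton X-100, 1% formaldehyde, 1 ug/ml Hoechst), and nuclei were counted on 4× images. Relative viability is the nuclei count in treated wells divided by the count in vehicle wells, and each value is the median of duplicate plates.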

Ibrutinib + Decitabine = compound: C=CC(=O)N1CCC[C@@H](n2nc(-c3ccc(Oc4ccccc4)cc3)c3c(N)ncnc32)C1 [Ibrutinib] + Nc1ncn([C@H]2C[C@H](O)[C@@H](CO)O2)c(=O)n1 [Decitabine] (partner 2 µM)
In short: as §1

BMX-IN-1 + Alpelisib = compound: C=CC(=O)Nc1cc(-n2c(=O)ccc3cnc4ccc(-c5ccc(NS(C)(=O)=O)cc5)cc4c32)ccc1C [BMX-IN-1] + Cc1nc(NC(=O)N2CCC[C@H]2C(N)=O)sc1-c1ccnc(C(C)(C)C(F)(F)F)c1 [Alpelisib] (partner 2 µM)
In short: as §1

PAC-1 + Lapatinib = compound: C=CCc1cccc(/C=N/NC(=O)CN2CCN(Cc3ccccc3)CC2)c1O [PAC-1] + CS(=O)(=O)CCNCc1ccc(-c2ccc3ncnc(Nc4ccc(OCc5cccc(F)c5)c(Cl)c4)c3c2)o1 [Lapatinib] (partner 2 µM)
In short: as §1

| Cell Line | relative viability (Ibrutinib + Phenformin; first compound 0.005 µM) | relative viability (Ibrutinib + Phenformin; first compound 0.01581 µM) | relative viability (Ibrutinib + Phenformin; first compound 0.05 µM) | relative viability (Ibrutinib + Phenformin; first compound 0.5 µM) | relative viability (Ibrutinib + Decitabine; first compound 0.005 µM) | relative viability (Ibrutinib + Decitabine; first compound 0.01581 µM) | relative viability (Ibrutinib + Decitabine; first compound 0.05 µM) | relative viability (Ibrutinib + Decitabine; first compound 0.5 µM) | relative viability (BMX-IN-1 + Alpelisib; first compound 0.02 µM) | relative viability (BMX-IN-1 + Alpelisib; first compound 0.2 µM) | relative viability (BMX-IN-1 + Alpelisib; first compound 0.6325 µM) | relative viability (BMX-IN-1 + Alpelisib; first compound 2 µM) | relative viability (PAC-1 + Lapatinib; first compound 0.02 µM) | relative viability (PAC-1 + Lapatinib; first compound 0.06325 µM) | relative viability (PAC-1 + Lapatinib; first compound 0.2 µM) | relative viability (PAC-1 + Lapatinib; first compound 2 µM) | relative viability (Ibrutinib + Phenformin; first compound 0.1581 µM) | relative viability (Ibrutinib + Decitabine; first compound 0.1581 µM) |
| --- | --- | --- | --- | --- | --- | --- | --- | --- | --- | --- | --- | --- | --- | --- | --- | --- | --- | --- |
| NCI-H2087 | 0.494 | 0.46 | 0.493 | 0.427 | 0.238 | 0.279 | 0.261 | 0.291 | 1.12 | 1.28 | 1.32 | 1.24 | 1.07 | 1.06 | 0.815 | 0.922 | – | – |
| NCI-H661 | 0.26 | 0.281 | 0.252 | 0.271 | 0.498 | 0.489 | 0.428 | 0.381 | 0.675 | 0.889 | 0.758 | 0.692 | 0.313 | 0.541 | 0.552 | 0.445 | 0.287 | 0.471 |
| COR-L 105 | 0.455 | 0.348 | 0.406 | 0.242 | 0.632 | 0.534 | 0.431 | 0.403 | 1.33 | 1.05 | 1.11 | 0.886 | 0.294 | 0.361 | 0.413 | 0.406 | 0.531 | 0.689 |
| BEN | – | 0.23 | 0.282 | 0.247 | 0.454 | 0.817 | 0.687 | 0.646 | 1.22 | 1.32 | 0.938 | 1.04 | 0.629 | 0.604 | 0.671 | 0.75 | 0.283 | 0.521 |
| NCI-H2023 | 0.376 | 0.392 | 0.402 | 0.357 | 0.245 | 0.234 | 0.249 | 0.23 | 0.617 | 0.675 | 0.686 | 0.627 | 1.1 | 0.849 | 0.768 | 0.847 | 0.45 | 0.208 |
| NCI-H2342 | 0.472 | 0.56 | 0.57 | 0.452 | 0.739 | 0.64 | 0.693 | 0.563 | – | – | – | – | – | – | – | – | 0.455 | 0.708 |
| NCI-H1650 | 0.403 | 0.358 | 0.353 | 0.287 | 0.41 | 0.379 | 0.512 | 0.444 | – | – | – | – | 0.749 | 0.875 | 0.675 | 0.668 | 0.348 | 0.402 |
| NCI-H522 | 0.627 | 0.545 | 0.688 | 0.622 | 0.64 | 0.588 | 0.677 | 0.637 | – | – | – | – | – | – | – | – | 0.582 | 0.626 |
| NCI-H1563 | 0.695 | 0.668 | 0.652 | 0.657 | – | – | – | – | 0.997 | 0.902 | 0.904 | 0.893 | 0.967 | 0.91 | 1.07 | 1.01 | 0.65 | – |
| NCI-H1623 | 0.571 | 0.532 | 0.509 | 0.27 | – | – | – | – | – | – | – | – | – | – | – | – | 0.347 | – |
| IA-LM | – | – | – | – | – | – | – | – | 0.854 | 0.697 | 1.07 | 0.916 | 0.937 | 0.922 | 0.715 | 1.08 | – | – |
| EBC-1 | – | – | – | – | – | – | – | – | 0.701 | 0.698 | 1.01 | 0.812 | 0.184 | 0.218 | 0.23 | 0.225 | – | – |
